According to patent US20210353579A1, “HIGH PENETRATION COMPOSITIONS AND USES THEREOF” (Techfields Pharma Co., Ltd., priority 2006, published 2021):

Legend:
[1] = test system: Human breast cancer cells (BCAP-37); assay: Human breast cancer xenograft in nude mice, topical; conditions: day 42; 30 μl of 5% (1.5 mg) topically every 8 hours from day 14; control 800 ± 100
Summary of the method: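 BCAP-37 tumour tissue (2-3 mm^3) was xenografted subcutaneously into the front leg of nude BALB mice, 7 per group. Compounds were applied topically as 30 μl of 5% solution (1.5 mg) in acetone or water.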

normal rats = assay: Blood glucose in normal rats, oral with food; format: in vivo, rat
[2] = test system: mice (SLAC:NOD-IDDM, type 1 diabetes); assay: Blood glucose in type 1 diabetes mice, transdermal; format: in vivo, mouse
Summary of the method: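 NOD-IDDM type 1 diabetic mice (n=7) received prodrug transdermally on shaved back skin (~1.5 cm²), at a dose equivalent to 30 mg/kg NSAIA, once daily for 7 weeks. Non-fasted blood glucose was measured every 3 days at 3 pm from week 4 to week 7.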

mice (MRL/LPR) = assay: Anti-lupus erythematosus activity; format: in vivo, mouse; conditions: 30 mg/kg topically twice per day, after 6 weeks

CC(=O)Oc1ccccc1C(=O)O.CCN(CC)CCOC(=O)c1ccccc1OC(C)=O [P-1, diethylaminoethyl acetylsalicylate.acetylsalicylic acid salt]
Tumor size [1]: 150 ± 50 mm^3 | Blood glucose, Normal rats, Average (normal rats; average second to fifth week, equal to 20 mg/kg of NSAIAs every day): 6.5 ± 1 mmol/L | Blood glucose, Normal rats, Baseline (normal rats; baseline, equal to 20 mg/kg of NSAIAs): 6.3 ± 1 mmol/L | Blood glucose, Average ([2]; average fourth to seventh week, no fasting, equal to 30 mg/kg of NSAIAs once per day for 7 weeks): 6.5 ± 1 mmol/L | Blood glucose, Baseline ([2]; baseline, equal to 30 mg/kg of NSAIAs): 26.1 ± 5 mmol/L | skin lesions and lupus nephritis (mice (MRL/LPR)): all skin lesions and lupus nephritis were resolved
